Experimental findings from patent EP3325480B1, “5-SUBSTITUTED-7-[4-(SUBSTITUTED) BENZYL]AMINO-3-ISOPROPYLPYRAZOLO (4,3-D) PYRIMIDINES AS MEDICAMENTS” (Ustav experimentalni botaniky AV CR, v.v.i., priority 2015, dated 2017) are described below.

SMILES strings stand for the structures.

One assay has as its system neutrophils. The assay can be described thus: Superoxide generation assay (luminol-based chemiluminescent assay, fMLP stimulus). The following applies: isolated human neutrophils, GM-CSF present, compound 1 h, fMLP 2.5 µM, luminol 100 µM (Figure 2). The format is cell-based. On the procedure: Isolated human neutrophils were incubated in the presence of prosurvival factor GM-CSF with or without the compound at indicated concentrations for 1 h.
Levels of reactive oxygen species (ROS) generated by neutrophils were measured using a luminol-based chemiluminescent assay (Gyllenhammar 1987). After treatment, neutrophils were resuspended in Hank's Balanced Salt Solution (HBSS) containing calcium and magnesium (Gibco) and transferred to opaque 96 well plates (Greiner Bio-One GmbH). Luminol was then added to each well at final concentration of 100 µM followed by a measuring of chemiluminescence in response to the stimulus fMLP (2.5 µM) at 1 min intervals for 30 min by means of a luminometer (Centro LB 960, Berthold Technologies, Bad Wildbad, Germany).
Regarding `CC(C)c1n[nH]c2c(NCc3ccc(-c4ccco4)cc3)nc(NCC(O)CN)nc12` (stereo not shown) [compound 15, 3-Isopropyl-5-(3-amino-2-hydroxypropyl)amino-7-[4-(furan-2-yl)benzyl]amino-1H-pyrazolo[4,3-d]pyrimidine], the “neutrophil oxygen radical production induced by fMLP” value is “inhibits”.

In another assay the test system is neutrophils. Put plainly: Measurement of neutrophil apoptosis (Annexin V FITC / propidium iodide, flow cytometry). The assay is classed as cell-based. The following applies: 10 nM, 8 h, isolated human neutrophils, Annexin V positive / PI negative cells taken as apoptotic. From the text: The neutrophils were isolated from the peripheral blood of healthy human donors as described previously (Afford et al 1992). Briefly, blood was collected into tubes containing EDTA followed by usage of 2% dextran solution for sedimentation of erythrocytes. The neutrophils were then isolated from leukocyte layer using a discontinuous Percoll density gradient centrifugation (Sigma- Aldrich, Poole, UK) and resuspended in RPMI 1640 medium (Sigma- Aldrich) supplemented with 10% heat-inactivated fetal bovine serum (Sera Laboratories International, Bolney, UK), 2 mM glutamine, 100 U/ml penicillin and 100 µg/ml streptomycin (Sigma-Aldrich). The purity of isolated neutrophils was assessed by Giemsa staining (Diff-Quick, Baxter Healthcare, UK) and light microscopy and was routinely greater than 97%. The neutrophils were then cultured in the presence of novel compounds (single concentration of 10 nM, or several increasing concentrations ranging from 10 nM to 1 µM) and other stimulating factors for 8 h.
For evaluation of early apoptosis, neutrophils were double stained with anti-Annexin V FITC-conjugated antibody (BD Pharmingen) binding extracellular phosphatidylserine and propidium iodide detecting late apoptotic and necrotic cells. After appropriate treatment, cells were washed with PBS and then resuspended in 100 µl of Annexin V buffer (10 mM HEPES, pH 7.4; 140 mM NaCl; 2.5 mM CaCl2). 1 µl of anti-Annexin V FITC-conjugated antibody was added and cells were then incubated at room temperature for 10 minutes followed by addition of propidium iodide at final concentration of 5 µg/ml. Fluorescence was analyzed by flow cytometry (BD Accuri C6 Flow Cytometer, Accuri Cytometers Inc.) with Annexin V positive / PI negative cells taken as apoptotic.
A general note: A flow cytometer gives signals particle by particle.
On to `CC(C)c1n[nH]c2c(NCc3ccc(-c4cccs4)cc3)nc(S(C)(=O)=O)nc12` [compound 3, 3-Isopropyl-5-methylsulfonyl-7-[4-(thiophen-2-yl)benzyl]amino-1H-pyrazolo[4,3-d]pyrimidine], for which the “% of apoptotic cells” value was 58%.
Regarding `CC(C)c1n[nH]c2c(NCc3ccc(-c4ccco4)cc3)nc(NCCCCCCN)nc12` [compound 30], the “% of apoptotic cells” value stood at 39%.
Still for that read-out and setting: as for `CCN(CC)CCNc1nc(NCc2ccc(N3CCCC3)cc2)c2[nH]nc(C(C)C)c2n1` [compound 63], the figure is 39%; as for `CCN(CC)C(C)CCNc1nc(NCc2ccc(N3CCCC3)cc2)c2[nH]nc(C(C)C)c2n1` (stereo not shown) [compound 65], 56%.
As for `CC(C)c1n[nH]c2c(NCc3ccc(-c4cccs4)cc3)nc(NC[C@H](C)O)nc12` [compound 42], the “% of apoptotic cells” value is 57%.
Take `CC(C)c1n[nH]c2c(NCc3ccc(-n4cccn4)cc3)nc(NCCCCCCN)nc12` [compound 60]: the “% of apoptotic cells” value was 60%.
Still for that read-out and setting: then `CC(C)c1n[nH]c2c(NCc3ccc(-c4cccs4)cc3)nc(NCC(O)CO)nc12` (stereo not shown) [compound 34], with 52%; and `CC(C)c1n[nH]c2c(NCc3ccc(-n4cccn4)cc3)nc(NCCCCN)nc12` [compound 58], with 44%; and `CC(C)c1n[nH]c2c(NCc3ccc(-n4cccn4)cc3)nc(NCCCCCN)nc12` [compound 59], with 49%.
`CC(C)c1n[nH]c2c(NCc3ccc(-n4cccn4)cc3)nc(S(C)(=O)=O)nc12` [compound 6, 3-Isopropyl-5-methylsulfonyl-7-[4-(1H-pyrazol-1-yl)benzyl]amino-1H-pyrazolo[4,3-d]pyrimidine]: the “% of apoptotic cells” value is given as 36%.
Still for that read-out and setting: then `CC(CCO)Nc1nc(NCc2ccc(-c3cccs3)cc2)c2[nH]nc(C(C)C)c2n1` (racemic) [compound 44], with 38%; and `CC(C)c1n[nH]c2c(NCc3ccc(-c4cccs4)cc3)nc(NCC(C)(C)O)nc12` [compound 32, 3-Isopropyl-5-(2-hydroxy-2-methylpropyl)amino-7-[4-(thiophen-2-yl)benzyl]amino-1H-pyrazolo[4,3-d]pyrimidine], with 48%; and `CC(C)c1n[nH]c2c(NCc3ccc(-c4cccs4)cc3)nc(NCCC(C)(C)O)nc12` [compound 33], with 36%.
As for `CC(C)c1n[nH]c2c(NCc3ccc(-c4ccco4)cc3)nc(NCC(O)CN)nc12` (stereo not shown) [compound 15, 3-Isopropyl-5-(3-amino-2-hydroxypropyl)amino-7-[4-(furan-2-yl)benzyl]amino-1H-pyrazolo[4,3-d]pyrimidine], the “% of apoptotic cells” value is 52%.
Same read-out and setting: as for `CC(C)c1n[nH]c2c(NCc3ccc(-c4ccco4)cc3)nc(S(C)(=O)=O)nc12` [compound 2, 3-Isopropyl-5-methylsulfonyl-7-[4-(furan-2-yl)benzyl]amino-1H-pyrazolo[4,3-d]pyrimidine], the figure is 41%; as for `CC(C)c1n[nH]c2c(NCc3ccc(-c4ccco4)cc3)nc(NCC(C)(C)O)nc12` [compound 31, 3-Isopropyl-5-(2-hydroxy-2-methylpropyl)amino-7-[4-(furan-2-yl)benzyl]amino-1H-pyrazolo[4,3-d]pyrimidine], 50%; as for `CC(C)c1n[nH]c2c(NCc3ccc(-c4ccco4)cc3)nc(NCCO)nc12` [compound 7], 47%.
The same measure, in the same setting: then `CC(C)c1n[nH]c2c(Cl)nc(S(C)(=O)=O)nc12` [compound 1, 7-Chloro-3-isopropyl-5-methylsulfonyl-1H-pyrazolo[4,3-d]pyrimidine], with 32%; and `CC(C)c1n[nH]c2c(NCc3ccc(-n4cccn4)cc3)nc(NCC(O)CN)nc12` (stereo not shown) [compound 61, 3-Isopropyl-5-(3-amino-2-hydroxypropyl)amino-7-[4-(1H-pyrazol-1-yl)benzyl]amino-1H-pyrazolo[4,3-d]pyrimidine], with 40%.
As to `CC(C)c1n[nH]c2c(NCc3ccc(N4CCCC4)cc3)nc(NCC(C)(C)O)nc12` [compound 66], the “% of apoptotic cells” value is 34%.
For `CC(C)c1n[nH]c2c(NCc3ccc(-c4cccs4)cc3)nc(N[C@H](C)CCO)nc12` [compound 45], the “% of apoptotic cells” value turned out to be 33%.
